Earlier results, collected in the CATMoS acute toxicity set (Mansouri et al. 2021).
Values joined by “and” are separate entries in the source; they are usually repeats but may differ in a detail not shown here. Equal entries are not always repeated.

Test: rat acute oral toxicity
Details: in vivo

Going from `NC(CCN1CCCCCC1)=NO` to `NCCCN1CCOCC1`, the LD50 rises from 500 mg/kg to 3560 mg/kg (7.1-fold).

Going from `CCCCNC(C)c1ccccc1` (stereo not given) to `NNCCc1ccccc1`, the LD50 falls from 360 mg/kg to 210 mg/kg (1.7-fold).

Compared with `CC(c1ccc(OC#N)cc1)c1ccc(OC#N)cc1`, `Oc1ccc(-c2ccc(O)cc2)cc1` is 4.9-fold higher in LD50: 1000 mg/kg for the first, 4920 mg/kg for the second.

Going from `CCCOC(=O)OOC(=O)OCCC` to `CCCCOC(=O)CC(C)=O`, the LD50 rises from 3400 mg/kg to 11300 mg/kg (3.3-fold).

First: O=c1cc(O)c1=O
Second: C=CCC1(C2C=CCC2)C(=O)N=C(O)NC1=O (stereo not given)
The LD50 of the first is 5-fold lower: 41 mg/kg for the first, 205 mg/kg for the second.

Going from `CCN(CC)CCNC(=O)c1cc([N+](=O)[O-])c(N(C)C)cc1OC` to `CCN(CC)CCCNc1c2ccccc2nc2cccc([N+](=O)[O-])c12`, the LD50 falls from 856 mg/kg to 63.2 mg/kg (14-fold).

Going from `CN(C)C(=O)Nc1cc(C(C)(C)C)on1` to `CN(C)C(=O)Oc1ccc[n+](C)c1`, the LD50 falls from 630 mg/kg to 37.5 mg/kg (17-fold).

First: CC(C)(C)NC(=O)[C@H]1CC[C@H]2[C@@H]3CC[C@H]4NC(=O)C=C[C@]4(C)[C@H]3CC[C@]12C
Second: CO[C@@H]1[C@@H](O)[C@@H](O)[C@H](O[C@@H]2C=C3CC[C@@H]4[C@H](CC[C@]5(C)[C@@H](c6ccc(=O)oc6)CC[C@]45O)[C@@]3(C)CC2)O[C@H]1C
The LD50 of the first is 5.3-fold higher: 418 mg/kg for the first, 79 mg/kg for the second.

`CCC(=O)C(C)=O` and `CC(=O)OCCC(Cl)C(C)=O` (stereo not given) are within 1.5-fold of each other in LD50: 3000 mg/kg for the first, 2050 mg/kg for the second.

First: CC(Cl)(Cl)C(=O)OCCOc1cc(Cl)c(Cl)cc1Cl
Second: O=C(O)Cc1c(Cl)ccc(Cl)c1Cl
The LD50 of the first is 1.8-fold lower: 1000 mg/kg for the first, 1780 mg/kg for the second.

First: CC(O)C(c1ccccc1)N1CCN(CCOc2ccccc2)CC1 (stereo not given)
Second: CC(CN1CCN(CCOCCO)CC1)CN1c2ccccc2Sc2ccccc21 (stereo not given)
The LD50 of the first is 1.6-fold lower: 250 mg/kg for the first, 400 mg/kg for the second.

Going from `CN(C)N=Nc1ccc([N+](=O)[O-])cc1` to `CN(C)N=Nc1ccc(-c2ccccc2)cc1`, the LD50 falls from 1660 mg/kg to 347 mg/kg (4.8-fold).

Going from `CC=Cc1ccc(OC(C)=O)c(OC)c1` to `CCCOc1cc(C=CC(=S)OCC)ccc1OC`, the LD50 falls from 3450 mg/kg to 970 mg/kg (3.6-fold).

Compared with `NC1=NCC(c2ccccc2)O1` (stereo not given), `CC1N=C(N)CC1c1ccccc1` (stereo not given) is 17-fold higher in LD50: 25 mg/kg for the first, 420 mg/kg for the second.

First: C=C(CC(=O)c1ccc(-c2ccccc2Cl)cc1)C(=O)O
Second: O=C(OCCOC(=O)c1ccccc1)c1ccccc1
The LD50 of the first is 2.2-fold lower: 2400 mg/kg for the first, 5340 mg/kg for the second.

`CC(=O)N(CCN(C)C)n1cc(-c2ccccc2)c2ccccc21` and `CN(C)CCCSc1ccccc1NC(=O)C=Cc1ccccc1` are within 1.5-fold of each other in LD50: 1100 mg/kg for the first, 1500 mg/kg for the second.

Going from `CC[N+](CC)(CC)CC` to `CCOP(=O)(OC=C(SCC)SCC)OCC`, the LD50 falls from 2630 mg/kg to 15 mg/kg (180-fold).

First: CC(=O)Oc1ccc(C#N)cc1
Second: CCC(=O)c1ccc(N)cc1
The LD50 of the first is 2.8-fold higher: 500 mg/kg for the first, 177 mg/kg for the second.

Going from `NCC(O)c1ccc(O)c(O)c1` (stereo not given) to `CCCCCc1ccccc1O`, the LD50 rises from 132 mg/kg to 700 mg/kg (5.3-fold).

Going from `CC(C=O)CCC(C)(O)C=O` (stereo not given) to `CCCCCC(C)(O)CC` (stereo not given), the LD50 falls from 5890 mg/kg to 3400 mg/kg (1.7-fold).

`CCC1NC(=O)c2ccccc2O1` (stereo not given) and `O=C1NCc2ccccc2O1` are within 1.5-fold of each other in LD50: 1310 mg/kg for the first, 1050 mg/kg for the second.

First: CC1=[N+](C)c2ccccc2C1(C)C
Second: Cc1c(N)nc(C)c2c1[nH]c1ccccc12
The LD50 of the first is 7.1-fold higher: 707 mg/kg for the first, 100 mg/kg for the second.

`CCSP(=O)(OC)SCC` and `CCCOP(=O)(SCCC)SCCC` are within 1.5-fold of each other in LD50: 158 mg/kg for the first, 129 mg/kg for the second.

Compared with `O=C1NC(=O)C(=O)C(=O)N1`, `Cc1ccc(S(=O)(=O)NCl)cc1` is 5.6-fold lower in LD50: 5210 mg/kg for the first, 935 mg/kg for the second.

`C[N+](C)(C)CCI` and `CC(C)CCOC(=S)S` are within 1.5-fold of each other in LD50: 700 mg/kg for the first, 765 mg/kg for the second.

Compared with `CSCC[C@H](N)C(=O)O`, `COCCOC(=O)C=CC(=O)OCCOC` is 11-fold lower in LD50: 36000 mg/kg for the first, 3340 mg/kg for the second.

First: COc1ccc2c3c1O[C@H]1[C@H](N=[N+]=[N-])CC[C@H]4[C@@H](C2)N(C)CC[C@@]341
Second: CCn1c2c(c3cccc(N)c31)CCCC2
The LD50 of the first is 9.1-fold lower: 120 mg/kg for the first, 1090 mg/kg for the second.

Going from `O=C(CF)NC(=O)Nc1ccccc1` to `O=C(OCC1CO1)c1ccccc1` (stereo not given), the LD50 rises from 25 mg/kg to 1410 mg/kg (56-fold).

Compared with `O=P(OCC(Cl)CCl)(OCC(Cl)CCl)OCC(Cl)CCl` (stereo not given), `CCCCC(CC)COP(=O)(OCC(CC)CCCC)OCC(CC)CCCC` (stereo not given) is 13-fold higher in LD50: 2830 mg/kg for the first, 37000 mg/kg for the second.

Going from `OCCNC1CCCCC1` to `CN(C)CC1CCCCC1`, the LD50 falls from 38300 mg/kg to 1230 mg/kg (31-fold).

Compared with `CC(C(=O)O)c1ccc(N2CC=CC2)c(Cl)c1` (stereo not given), `Cc1cc(=NC(=O)c2ccccc2O)n(-c2ccccc2)n1C` is 3.6-fold higher in LD50: 351 mg/kg for the first, 1270 mg/kg for the second.

First: S=c1[nH]c2ccc(Cl)cc2[nH]1
Second: Nc1nc2cc(Br)ccc2o1
The LD50 of the first is 6.7-fold lower: 150 mg/kg for the first, 1000 mg/kg for the second.

Going from `CCNC(=O)Oc1c(Cl)c(Cl)cc2[nH]c(C(F)(F)F)nc12` to `COc1c(F)c(F)c2[nH]c(C(F)(F)F)nc2c1F`, the LD50 falls from 103 mg/kg to 2.89 mg/kg (36-fold).

First: CCCCCOC(CBr)c1ccc(C2CCCCC2)cc1 (stereo not given)
Second: CCCCCOc1cccc(NC(=O)O[C@@H]2CCCC[C@H]2N2CCCC2)c1
The LD50 of the first is 4.1-fold lower: 250 mg/kg for the first, 1030 mg/kg for the second.

`O=[N+]([O-])O[C@@H]1CO[C@H]2[C@@H]1OC[C@@H]2O` and `COCC(O)Cn1ccnc1[N+](=O)[O-]` (stereo not given) are within 1.5-fold of each other in LD50: 2010 mg/kg for the first, 2130 mg/kg for the second.

`CCCCC1(COC(=O)CCC(=O)O)C(=O)N(c2ccccc2)N(c2ccccc2)C1=O` and `CC(CC1CCCCC1)NCCC(c1ccccc1)c1ccccc1` (stereo not given) are within 1.5-fold of each other in LD50: 1700 mg/kg for the first, 1550 mg/kg for the second.

First: CN(C)c1ccc(C(=N)c2ccc(N(C)C)cc2)cc1
Second: CN(C)c1ccc(C=Cc2ccccc2)cc1
The LD50 of the first is 60-fold higher: 3000 mg/kg for the first, 50 mg/kg for the second.

Going from `CCCCCCCCCCCC[n+]1ccc2ccccc2c1` to `CCCCCCCCCc1ccc(OCCO)cc1`, the LD50 rises from 230 mg/kg to 2100 mg/kg (9.1-fold).

First: COc1cc(C(F)(F)F)ccn1
Second: Cc1c(F)c(F)c2nc(C(F)(F)F)[nH]c2c1F
The LD50 of the first is 440-fold higher: 1750 mg/kg for the first, 3.94 mg/kg for the second.

`COc1nc(Cl)nc(OC)n1` and `COc1c2ccoc2cc2oc(C)cc(=O)c12` are within 1.5-fold of each other in LD50: 870 mg/kg for the first, 832 mg/kg for the second.

First: O=NN1CC=CCO1
Second: CC(=O)N(C)N=O
The LD50 of the first is 45-fold higher: 900 mg/kg for the first, 20 mg/kg for the second.

`CC(C)=NNC(=O)CSc1cc(Oc2ccc(C)cc2)ncn1` and `CC(C)(Oc1ccc(C2CCCc3ccccc32)cc1)C(=O)O` (stereo not given) are the same in LD50: 900 mg/kg for the first, 900 mg/kg for the second.

First: CCOP(=O)(N=C1SCCS1)OCC
Second: CCOP(=S)(OCC)SCn1nc(CC)ccc1=O
The LD50 of the first is 2.1-fold lower: 8.9 mg/kg for the first, 18.8 mg/kg for the second.

First: c1ccc(-c2nnco2)cc1
Second: COC(C=Cc1ccccc1)OC
The LD50 of the first is 8.4-fold lower: 440 mg/kg for the first, 3700 mg/kg for the second.

Going from `CCCCCCCCCCCCN(CCC(=O)O)CCC(=O)O` to `CCCCCCCCCN(CCCCCCCCC)CCCCCCCCC`, the LD50 falls from 31300 mg/kg to 5600 mg/kg (5.6-fold).

First: COP(=S)(OC)Oc1ccc2c(C)cc(=O)oc2c1
Second: COP(=S)(OC)SCC(=O)CNC(=O)Oc1cccc(C(C)C)c1
The LD50 of the first is 28-fold lower: 15.6 mg/kg for the first, 432 mg/kg for the second.

Compared with `C[C@@H]1CN(CCCn2c3ccccc3c3ccccc32)C[C@H](C)N1`, `CN1CCC(=C2c3ccccc3Oc3ccc(Cl)cc32)CC1` is 2.8-fold lower in LD50: 907 mg/kg for the first, 319 mg/kg for the second.

First: CCCSCSP(=S)(OCC)OCC
Second: CCOP(=S)(OCC)Oc1ccc([N+](=O)[O-])cc1Cl
The LD50 of the first is 3.6-fold lower: 2.8 mg/kg for the first, 10 mg/kg for the second.

Going from `Cc1cc(C(C)(C)CC(C)(C)C)ccc1OCCOCC[N+](C)(C)Cc1ccccc1` to `Cn1c(=O)c2c(ncn2CCOC(=O)C(C)(C)Oc2ccc(Cl)cc2)n(C)c1=O`, the LD50 rises from 800 mg/kg to 17000 mg/kg (21-fold).

First: CC(C)NC(=S)NC(C)C
Second: CNC(C)C#N (stereo not given)
The LD50 of the first is 9.4-fold higher: 450 mg/kg for the first, 48 mg/kg for the second.

Going from `Cc1cccc(Cl)c1NC(=O)/C=C1\SCC(=O)N1C` to `CCCC1(c2cccc(O)c2)CCN(C)C1` (stereo not given), the LD50 falls from 1350 mg/kg to 231 mg/kg (5.8-fold).

First: CCOC(=O)C1=CN(C(C)=O)C2CCCC(C)N2C1=O (stereo not given)
Second: CC(=O)N(CCN(C(C)=O)C(C)=O)C(C)=O
The LD50 of the first is 3.2-fold lower: 2500 mg/kg for the first, 7940 mg/kg for the second.

Compared with `Nc1ccc(N=Nc2ccc(O)cc2)cc1`, `NC(=O)c1cc([N+](=O)[O-])cc([N+](=O)[O-])c1` is 1.6-fold lower in LD50: 1950 mg/kg for the first, 1250 mg/kg for the second.

Compared with `O=C1N(Cl)C2C(N1Cl)N(Cl)C(=O)N2Cl` (stereo not given), `C=C(Cl)CCl` is 6.7-fold lower in LD50: 2150 mg/kg for the first, 320 mg/kg for the second.

In the case of `S=C(S)NCCNC(=S)S`, the LD50 is given as 1850 mg/kg and 2850 mg/kg.
For `O=C(O)COc1ccc(Cl)cc1Cl`, the LD50 is given as 405 mg/kg and 850 mg/kg.
